From publication PMC3545186 (Biochemical Pharmacology, 2013)
Numbered stars: 1 amine (or outer) side, 2 acyl side, 3 side chain; on linkers, the order of the positions; unused ones are H or OH. Bridge positions count the residues as written; N and C are the ends. Square brackets hold non-standard residues; d marks the D form. Peptide text beside a SMILES is read from it. I, II: the chains in the order shown. Actinocin(9to1) = Cc1c2oc3c(C)ccc(C(=O)[*:1])c3nc-2c(C(=O)[*:2])c(N)c1=O; NMeV = CN[C@H](C(=O)O)C(C)C; Sar = CNCC(=O)O

Experiments:
ABCB1 (MDR1) = experiment: Growth inhibition; settings: dog, 72 h
MDCKII-ABCB1 cells = experiment: Growth inhibition
MDCKII-ABCC1 cells = experiment: Growth inhibition; assay type: cell-based, canine; settings: MDCKII-ABCC1, MK571 25 μM
MDCKII-ABCG2 cells = experiment: Intracellular accumulation of Act D; assay type: in vitro ADME, canine

Cc1c2oc3c(C)ccc(C(=O)N[C@@H]4C(=O)N[C@H](C(C)C)C(=O)N5CCC[C@H]5C(=O)N(C)CC(=O)N(C)[C@@H](C(C)C)C(=O)O[C@@H]4C)c3nc-2c(C(=O)N[C@@H]2C(=O)N[C@H](C(C)C)C(=O)N3CCC[C@H]3C(=O)N(C)CC(=O)N(C)[C@@H](C(C)C)C(=O)O[C@@H]2C)c(N)c1=O [Act D, actinomycin D] (I: T[dV]P[Sar][NMeV] / II: T[dV]P[Sar][NMeV]; ester I:1-I:C, II:1-II:C; linker I:N-II:N via Actinocin(9to1))
GI50 at 72 h (ABCB1 (MDR1); GI50, MDCKII-ABCB1, + verapamil (1 μM)): 129 nM
GI50 at 72 h (ABCB1 (MDR1); GI50, MDCKII-ABCB1, Act D alone): 745 nM
decrease in GI50 with verapamil (MDCKII-ABCB1 cells; MDCKII-ABCB1, verapamil 1 μM, 72 h): 6 fold
difference in GI50 between MDCKII-WT and MDCKII-ABCB1 (MDCKII-ABCB1 cells; MDCKII-ABCB1 less sensitive than parental): 59 fold
increase in sensitivity to Act D with MK571 (MDCKII-ABCC1 cells): greater than 4 fold
Act D accumulation compared to WT cells (MDCKII-ABCG2 cells; MDCKII-ABCG2): not different to WT cells
effect of co-incubation with KO143 on Act D accumulation (MDCKII-ABCG2 cells; MDCKII-ABCG2, data not shown): no effect
